# Assay results: article PMC12655621 (Pharmaceuticals, 2025)
# How the values were obtained:
# [1] = tested on: U87 MG; design: method as in earlier work; details: human U87 MG glioma cells; errors omitted; ref 19 (compounds 8 and 9: ref 13); cited from earlier work
# [2] = tested on: F98; design: method as in earlier work; details: F98 rat glioma cells; errors omitted; ref 19 (compounds 8 and 9: ref 13); cited from earlier work
# [3] = tested on: C6; design: method as in earlier work; details: C6 glioma cells; errors omitted; ref 19 (compounds 8 and 9: ref 13); cited from earlier work
# [4] = tested on: Mix of primary glial cell culture; design: method as in earlier work; details: mix of primary glial cell culture (healthy cells); errors omitted; ref 19 (compounds 8 and 9: ref 13); cited from earlier work
# [5] = Shake-flask logD7.4 n-octanol/PBS; format: physicochemical; details: n-octanol/PBS pH 7.4, shake-flask, room temperature
# Protocol: A PBS (pH 7.4) solution was saturated with n-octanol, and n-octanol was saturated with PBS (pH 7.4) by vigorous shaking, followed by equilibration for at least 24 h to ensure complete phase separation. The reference compound 4-chloro-6,7-bis(2-methoxyethoxy)quinazoline and analogs 1–7 were dissolved in the octanol phase (previously saturated with PBS), and equal volumes of the aqueous phase (previously saturated with octanol) were added. Final assay solutions were prepared at 10 μM by diluting 2 μL of a 5 mM stock solution into 1 mL of total volume. The biphasic mixtures were shaken for 24 h at room temperature. After equilibration, both the octanolic and aqueous phases were analyzed by UV–visible spectrophotometry using a Shimadzu UV-1603. […] LogD7.4 values were calculated as […]. Each determination was performed in triplicate. Regression analyses and curve fittings were performed using GraphPad Prism 8.0 software (GraphPad Software Inc., LaJolla, CA, USA).
SMILES,IC50 [1] [µM],IC50 [2] [µM],IC50 [3] [µM],IC50 [4] [µM],logD at 24 h [5]
"C#Cc1cccc(Nc2ncnc3cc(OCCOC)c(OCCOC)cc23)c1 [Erl, erlotinib]",63,> 100,> 100,> 100,
"COCCOc1cc2ncnc(Cl)c2cc1OCCOC [4-chloro-6,7-bis(2-methoxyethoxy)quinazoline]",,,,,1.02
